According to ChEMBL document CHEMBL1136134, “Novel coumarin derivatives of heterocyclic compounds as lipid-lowering agents” (2003):
Calls of active or inactive are those of the source. The calls are words filed in the database; no cut-off is given here.

Legend:
Mus musculus [1] = assay: Plasma triglyceride lowering activity in swiss albino mice was determined after 3 mg/kg compound administered for 6 days; assay type: functional
Mus musculus [2] = assay: Plasma triglyceride lowering activity in swiss albino mice was determined after 3 mg/kg compound administered for 6 days; Not effective; assay type: functional, organism-based; parameters: dose 3 mg/kg
Mus musculus [3] = assay: Plasma triglyceride lowering activity in swiss albino mice was determined after 30 mg/kg compound administered for 6 days; assay type: functional

Structure (SMILES) | Activity (Mus musculus [1]) [%] | Activity (Mus musculus [2]) | also measured
CC(=O)Nc1cc2ccc(OCCc3nc(-c4ccccc4)oc3C)cc2oc1=O | 2 | – | –
CCOc1cc2ccc(OCCn3ncc4ccccc4c3=O)cc2oc1=O | 45 | – | –
CCOc1cc2ccc(OCCn3ccc4ccccc43)cc2oc1=O | 27 | – | –
CCOc1cc2ccc(OCCn3c(CC)nc4ccccc4c3=O)cc2oc1=O | – | inactive | –
CCOc1cc2ccc(OCCn3c(CC)nc(C)cc3=O)cc2oc1=O | 26 | – | –
CCOC(Cc1ccc(OCCN2c3ccccc3Oc3ccccc32)cc1)C(=O)O (configuration not stated) | 47 | – | –
CC(=O)Nc1cc2ccc(OCCN(C)c3nc4ccccc4o3)cc2oc1=O | – | inactive | –
CCOc1cc2ccc(OCCN(C)c3nc4ccccc4o3)cc2oc1=O | – | inactive | –
CCOc1cc2ccc(OC(C)(C)C(=O)O)cc2oc1=O | 16 | – | –
CCOc1cc2ccc(OCCc3nc(-c4ccccc4)oc3C)cc2oc1=O | 31 | – | –
O=C(O)c1cc2ccc(OCCn3ncc4ccccc4c3=O)cc2oc1=O | – | inactive | –
CCOC(=O)c1cc2ccc(OCCc3nc(-c4ccccc4)oc3C)cc2oc1=O | 2 | – | –
CCOc1cc2ccc(OCCN3c4ccccc4Oc4ccccc43)cc2oc1=O | – | inactive | –
Cc1oc(-c2ccccc2)nc1CCOc1ccc2cc(C(=O)O)c(=O)oc2c1 | 32 | – | –
CC(C)OC(=O)C(C)(C)Oc1ccc(C(=O)c2ccc(Cl)cc2)cc1 [FENOFIBRATE] | – | – | Activity (Mus musculus [3]): 36%
CCOc1cc2ccc(OCc3ccccc3F)cc2oc1=O | 25 | – | –
CCOc1cc2ccc(OCCn3ncc4cc(C)ccc4c3=O)cc2oc1=O | – | inactive | –
